We go through one molecule from patent publication US20230141863A1, “Small Molecule Inhibitors Targeting the Sodium Channel Tamoxifen Receptor and Uses Thereof” (Northwestern University, priority 2021, published 2023).

One assay has as its target T1, human Nav1.7 (Homo sapiens, UniProt Q15858).
T1 construct: expressed in transfected cells; host or cells: HEK cells, transient transfection with lipofectamine
Put plainly: Voltage clamp of heterologously expressed Nav1.7. The assay is classed as cell-based. The note with it: Hill fit, printed for ND-Tam and 4OH-Tam together. The method, then:
(§1) While no clear drug-receptor interactions were determined within Siteout, the S6 E220 side chains formed hydrogen bond interactions with the ether and amine moieties of the ND-Tam molecules found at Sitein. […] After structural alignment of the crystalized NavMs-Tam complex with the cryo EM Nav1.7+b1+b2 channel coordinates, the S6 side chain hydroxyl in DII (S969) and the carboxyl side chains in DIII (E1458) and DIV (D1761) observed in the human channel were nearly superimposable with E220 of the prokaryotic Nav subunits. In addition, the distances from the drug ether and amines were within acceptable distances (2.8-3.1 Å) for hydrogen bond formation for all three site chains (FIG. 2B). […]
(§2) Plasmids encoding the human version of channels Nav1.1, 1.6, and 1.7 were co-transfected with TRES GFP into HEK cell lines for whole-cell voltage clamp studies (American Type Culture Collection). […] Plasma membrane currents were recorded using borosilicate glass electrodes polished to resistances of […]. Sodium currents conducted by heterologously expressed Navs were recorded using the following solutions (in mM). […] Endogenous DRG sodium currents were recorded using an intracellular solution consisting of 70 CsCl, 70 CsF, 2 EGTA, 5 HEPES, and 5 NaCl; the pH was adjusted to 7.4 with CsOH. […]

Assay [1] has as its target T2, Nav1.7 D1458A in domain III (Homo sapiens, UniProt Q15858, D1458A).
T2 construct: expressed in transfected cells
Put plainly: Voltage clamp of Nav1.7 with alanine substitution in domain III. The assay is classed as cell-based. How it is done: as §1, §2

Another assay concerns the target T3, estrogen receptor (ER) (Homo sapiens, UniProt P03372).
T3 sequence (P03372 1-595): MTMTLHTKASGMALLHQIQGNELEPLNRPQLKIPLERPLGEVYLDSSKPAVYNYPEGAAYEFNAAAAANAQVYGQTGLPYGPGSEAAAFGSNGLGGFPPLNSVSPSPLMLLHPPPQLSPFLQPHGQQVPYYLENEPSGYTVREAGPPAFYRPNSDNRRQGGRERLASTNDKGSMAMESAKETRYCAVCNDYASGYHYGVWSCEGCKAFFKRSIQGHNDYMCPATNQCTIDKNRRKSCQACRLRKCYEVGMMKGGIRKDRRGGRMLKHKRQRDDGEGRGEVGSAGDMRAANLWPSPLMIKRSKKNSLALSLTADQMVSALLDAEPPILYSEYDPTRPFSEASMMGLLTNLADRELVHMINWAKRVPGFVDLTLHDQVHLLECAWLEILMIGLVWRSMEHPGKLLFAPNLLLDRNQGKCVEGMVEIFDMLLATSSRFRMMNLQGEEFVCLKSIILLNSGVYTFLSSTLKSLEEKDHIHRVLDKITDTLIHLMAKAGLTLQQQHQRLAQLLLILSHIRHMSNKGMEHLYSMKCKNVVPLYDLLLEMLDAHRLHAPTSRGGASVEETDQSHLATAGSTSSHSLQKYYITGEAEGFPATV
The note with it: reference 35; cited from earlier work.

T2 sequence (Q15858 whole entry D1458A, the tested form may be a part): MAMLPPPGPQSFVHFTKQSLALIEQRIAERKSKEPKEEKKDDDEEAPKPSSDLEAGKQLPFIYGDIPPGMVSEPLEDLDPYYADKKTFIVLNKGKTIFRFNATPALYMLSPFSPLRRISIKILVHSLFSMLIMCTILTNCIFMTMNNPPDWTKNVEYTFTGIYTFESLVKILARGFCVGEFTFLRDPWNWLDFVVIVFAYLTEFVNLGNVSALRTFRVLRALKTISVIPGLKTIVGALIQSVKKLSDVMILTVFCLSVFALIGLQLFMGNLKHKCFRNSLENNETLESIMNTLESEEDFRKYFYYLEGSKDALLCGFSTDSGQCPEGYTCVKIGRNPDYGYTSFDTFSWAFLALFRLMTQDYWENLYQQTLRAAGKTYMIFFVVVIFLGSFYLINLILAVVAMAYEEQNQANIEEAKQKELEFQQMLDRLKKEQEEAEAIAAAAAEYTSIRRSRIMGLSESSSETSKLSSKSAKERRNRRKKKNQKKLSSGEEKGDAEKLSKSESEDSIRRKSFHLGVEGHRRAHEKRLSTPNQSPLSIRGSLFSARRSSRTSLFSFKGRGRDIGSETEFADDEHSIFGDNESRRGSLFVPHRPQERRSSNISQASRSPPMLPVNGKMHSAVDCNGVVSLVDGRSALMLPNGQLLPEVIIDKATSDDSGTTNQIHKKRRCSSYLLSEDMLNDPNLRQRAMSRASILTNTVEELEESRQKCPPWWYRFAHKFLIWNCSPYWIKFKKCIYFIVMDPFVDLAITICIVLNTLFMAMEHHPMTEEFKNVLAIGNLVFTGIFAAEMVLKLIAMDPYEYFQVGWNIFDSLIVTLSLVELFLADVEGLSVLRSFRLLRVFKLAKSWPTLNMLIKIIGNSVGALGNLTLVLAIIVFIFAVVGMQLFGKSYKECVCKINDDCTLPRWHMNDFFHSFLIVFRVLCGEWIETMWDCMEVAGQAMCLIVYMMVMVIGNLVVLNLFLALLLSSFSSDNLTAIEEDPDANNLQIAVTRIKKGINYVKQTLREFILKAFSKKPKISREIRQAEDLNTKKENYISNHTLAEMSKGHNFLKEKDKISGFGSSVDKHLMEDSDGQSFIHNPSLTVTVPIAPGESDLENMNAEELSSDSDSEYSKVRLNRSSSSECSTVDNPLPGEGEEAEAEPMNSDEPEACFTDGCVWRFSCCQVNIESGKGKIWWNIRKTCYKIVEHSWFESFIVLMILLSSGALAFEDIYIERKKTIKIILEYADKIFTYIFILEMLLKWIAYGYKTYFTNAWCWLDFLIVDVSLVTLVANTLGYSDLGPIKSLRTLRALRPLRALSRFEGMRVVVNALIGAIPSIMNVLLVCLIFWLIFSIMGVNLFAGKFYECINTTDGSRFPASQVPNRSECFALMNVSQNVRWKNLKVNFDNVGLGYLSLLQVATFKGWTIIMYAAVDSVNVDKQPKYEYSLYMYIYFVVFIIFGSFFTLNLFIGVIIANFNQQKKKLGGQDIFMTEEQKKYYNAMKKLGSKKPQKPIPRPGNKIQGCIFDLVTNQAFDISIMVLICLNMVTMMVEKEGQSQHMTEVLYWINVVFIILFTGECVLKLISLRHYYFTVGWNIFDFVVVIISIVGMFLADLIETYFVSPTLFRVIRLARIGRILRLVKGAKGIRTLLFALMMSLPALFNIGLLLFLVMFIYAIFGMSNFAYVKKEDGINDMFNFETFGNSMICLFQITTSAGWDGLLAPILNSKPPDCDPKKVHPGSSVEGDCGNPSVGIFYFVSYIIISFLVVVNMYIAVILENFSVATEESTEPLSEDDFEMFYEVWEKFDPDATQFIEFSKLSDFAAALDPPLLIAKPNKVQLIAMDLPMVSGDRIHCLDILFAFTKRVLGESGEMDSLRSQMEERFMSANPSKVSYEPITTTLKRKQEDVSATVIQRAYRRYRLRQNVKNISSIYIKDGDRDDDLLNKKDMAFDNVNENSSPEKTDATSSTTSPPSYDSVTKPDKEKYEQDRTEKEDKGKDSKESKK
T1 sequence (Q15858 whole entry): as the sequence (Q15858 whole entry D1458A, the tested form may be a part) above, with A1458D counted along it

For the molecule `CC/C(=C(\c1ccccc1)c1ccc(OCCNC)cc1)c1ccccc1` [ND-Tam, 2-[4-[(Z)-1,2-diphenylbut-1-enyl]phenoxy]-N-methylethanamine], the slope of concentration-dependence on human Nav1.7 was determined as 2.1; in assay [1], 2.2. Also, the “affinity for the ER, times lower than 4OH-Tam” value at estrogen receptor (ER) was around 100 times.
